Test results from ChEMBL document CHEMBL4308886, “Molecular features characterizing non-peptide selectivity to the human B1 and B2 bradykinin receptors” (Bioorg Med Chem Lett, 2019).

Tests used:
Assay type in all cases: cell-based
[1] = molecular target: T1, B2 bradykinin receptor (Homo sapiens) (UniProt P30411); assay: Displacement of [3H]bradykinin from human recombinant bradykinin B2 receptor expressed in CHO cells at 50 uM measured after 1 hr relative to control
T1 sequence (whole entry): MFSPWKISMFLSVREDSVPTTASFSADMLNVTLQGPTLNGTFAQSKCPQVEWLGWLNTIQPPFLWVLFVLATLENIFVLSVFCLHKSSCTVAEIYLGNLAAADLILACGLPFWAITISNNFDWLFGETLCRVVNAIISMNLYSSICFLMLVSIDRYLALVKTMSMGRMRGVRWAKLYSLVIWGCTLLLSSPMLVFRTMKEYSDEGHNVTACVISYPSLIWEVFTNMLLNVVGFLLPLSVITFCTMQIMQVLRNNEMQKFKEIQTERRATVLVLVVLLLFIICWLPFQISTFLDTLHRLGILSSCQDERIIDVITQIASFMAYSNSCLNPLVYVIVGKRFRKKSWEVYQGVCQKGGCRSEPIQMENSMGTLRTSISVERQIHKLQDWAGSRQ

[2] = molecular target: T2, B1 bradykinin receptor (Homo sapiens) (UniProt P46663); assay: Displacement of [3H][…] from human recombinant bradykinin B1 receptor expressed in CHO cells at 50 uM measured after 1 hr relative to control
T2 sequence (whole entry): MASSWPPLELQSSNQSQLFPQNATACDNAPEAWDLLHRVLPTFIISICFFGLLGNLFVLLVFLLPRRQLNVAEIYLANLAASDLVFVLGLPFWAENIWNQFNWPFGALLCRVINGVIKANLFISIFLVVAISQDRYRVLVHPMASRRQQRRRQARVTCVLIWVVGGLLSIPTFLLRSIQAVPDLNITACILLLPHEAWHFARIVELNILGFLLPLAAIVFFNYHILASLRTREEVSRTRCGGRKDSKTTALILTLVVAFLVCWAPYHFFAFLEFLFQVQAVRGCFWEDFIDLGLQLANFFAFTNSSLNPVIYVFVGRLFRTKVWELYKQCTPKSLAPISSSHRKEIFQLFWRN

[3] = molecular target: T2, B1 bradykinin receptor (Homo sapiens); assay: Displacement of [3H][…] from human recombinant bradykinin B1 receptor expressed in CHO cells at 10 uM measured after 1 hr relative to control
[4] = molecular target: T1, B2 bradykinin receptor (Homo sapiens); assay: Displacement of [3H]bradykinin from human recombinant bradykinin B2 receptor expressed in CHO cells at 10 uM measured after 1 hr relative to control

| SMILES | inhibition [1] | inhibition [2] | inhibition [3] | inhibition [4] |
| --- | --- | --- | --- | --- |
| COc1cc(NC(C)CCCN)c2nc(C)ccc2c1OC1CCC(F)CC1 (configuration not stated) | 45% | 12% |  |  |
| COc1cc(NCCCCCCC2CCCCN2)c2ncccc2c1 (configuration not stated) | 36% | 31% |  |  |
| COc1cc(NCCCCCCCC2CCCCN2)c2ncccc2c1 (configuration not stated) | 65% | 46% |  |  |

The next lines start with the values.

| inhibition [1] | inhibition [2] | inhibition [3] | inhibition [4] | SMILES |
| --- | --- | --- | --- | --- |
| 41% |  | 31% |  | CC1CCC(N2NC(=O)/C(=C\c3cccn3-c3ccc(S(N)(=O)=O)cc3)C2=O)CC1Cl (configuration not stated) |
|  |  | 14% | 33% | Cc1ccc(NC2=NC(=O)/C(=C/c3ccc(-c4ccc(C(=O)O)cc4)o3)S2)cc1Cl |
|  |  | 32% | 34% | CC1=C(C#N)C(=O)N(CCc2c[nH]c3ccccc23)C(=O)/C1=C\Nc1ccc(S(N)(=O)=O)cc1 |
